Results published in patent US20160333019A1, “SYNTHESIS AND FORMULATIONS OF PORPHYRIN COMPOUNDS” (Aeolus Sciences, Inc., priority 2013, published 2016).

Key:
[1] = Study 3: various strengths of Formula (VI) in WFI at pH 7.0, with and without ascorbic acid; type: physicochemical
Experimental: Ascorbic acid was also included in this study. […] The samples were tested and evaluated for physicochemical stability under 2-8 and 60° C. storage conditions after 0, 3, 7 and 14 days.
(§1) About 10 g of WFI was placed in the container including a stir bar. […] The pH was measured and the solution was mixed at room temperature for 16-24 hours. At the end of the 16-24 hour hold/mix, the pH of solution was adjusted to pH 7.0 with either HCl or NaOH and mixed for about 15 minutes. The solution was filtered through a PVDF, 0.22 μm filter by discarding about 1 mL prior to placing about 9-10 mL into each of two separate clean containers. The pH of the samples was then measured.
as §1, with “bar. […] About 0.1026 g of Ascorbic Acid was added to the container while mixing.” for “bar.”, “discarding” for “discarding about”
as §1, with “bar. […] About 0.103 g of Ascorbic Acid was added to the container while mixing.” for “bar.”
Following preparation of the solutions, one container of each of solutions 1-6 was stored at 2-8° C. The remaining containers for each of solutions 1-6 were stored at 60° C. From each container, a sample was taken at 0, 3, 7 and 14 days and the pH of the solution was measured.

[2] = Study 4: 75 mg/mL Formula (VI) in WFI at pH 7.0 under ICH storage temperatures; type: physicochemical; settings: after 1 month
Experimental: as §1, with “4-5” for “9-10”, “four” for “two”, “containers (A, B, C, D).” for “containers.”, “measured. Solution A was stored at 2-8° C., solution B at 25° C., solution C at 30° C. and solution D at 40° C. […]” for “measured.”

pH increase ([1]; 100 mg/mL refrigerated sample without ascorbic acid, after 3 day storage): ~1 pH unit | pH decrease compared to the control sample ([1]; 100 mg/mL sample without ascorbic acid, 60° C., after 14 days): ~2 pH units | degradation ([1]; 65, 75, 100 mg/mL in water pH 7 containing ascorbic acid, 60° C., after 14 days): 3-5% | degradation ([1]; 65, 75, 100 mg/mL in water pH 7 without ascorbic acid, 60° C., after 14 days): 3-5% | pH decrease ([1]; 65 and 75 mg/mL samples without ascorbic acid, 60° C., after 14 days): ~2 pH units | pH stability ([1]; 65 and 75 mg/mL samples without ascorbic acid, refrigerated condition): relatively stable | pH increase from initial pH ([1]; all refrigerated samples containing ascorbic acid, after 14 days): ~1.5 pH units | pH decrease from initial pH ([1]; samples containing ascorbic acid, 60° C., after 3 days): ~2 pH units | pH rise back ([1]; samples containing ascorbic acid, 60° C., after 14 days): 1-1.5 pH units | chemical stability ([2]; 75 mg/mL in water pH 7, each storage condition): No significant change | pH decrease ([2]; 75 mg/mL pH 7, 25° C.): approximately 0.3 pH units | pH decrease ([2]; 75 mg/mL pH 7, 30° C.): ~0.5 pH units | pH decrease ([2]; 75 mg/mL pH 7, 40° C.): ~1.1 pH units | osmolality ([2]; 75 mg/mL pH 7, all samples): 270-276 mOsm/kg | pH change ([2]; 75 mg/mL pH 7, refrigerated sample): ≤ 0.1 pH unit
Substance: [5,10,15,20-tetrakis(1,3-diethylimidazolium-2-yl)porphyrinato]manganese(III) chloride hydrate complex [Formula (VI)]
